Consider four compounds from patent US20200003760A1, “IN-VITRO METHODS FOR CLASSIFYING DRUGS ACCORDING TO THEIR POTENTIAL TO CAUSE LIVER CELL INJURY” (Board of Trustees of Michigan State University, priority 2018, published 2020).

For one data set, the system named is HepG2 cells. In words: Drug/cytokine-induced cytotoxicity (% LDH release) concentration-response in HepG2 cells. The class given is cell-based, human. More on the design: key to Deltadiff: LDH release percentage points (drug/TNF Delta minus drug/VEH Delta). As to conditions: for R10 / R10 IFN / R10 TNF / R10 TNF/IFN: 10 percent increase in LDH response above min, 0 when D10 = 0; for R10 / D10 (LDH rise of at least 10 points, yes/no) / Emax / EC10: drug alone (VEH); for R10 IFN: with IFN; for R10 TNF: with TNF; for R10 TNF/IFN / EC10 TNF/IFN: with TNF and IFN; for Deltadiff: Delta of drug/TNF curve minus Delta of drug/VEH curve (LDH percentage); for cytotoxic interaction of drug with TNF: TNF 10 ng/ml; for cytotoxicity of drug on its own (LDH release): absence of cytokines; for D10 (LDH rise of at least 10 points, yes/no) / Emax: Homo sapiens, HepG2; for EC10: value corresponding to 10% of Delta (max-min); for EC10 TNF: with TNF 10 ng/ml; for TNF change: D10TNF − D10VEH. As to the method: Cells were passed or used for experiments when they reached approximately 80% confluence. Cells were used at passage 6-16.
HepG2 cells were plated at a density of 4×10^4 cells per well in black-walled, 96-well, tissue culture plates and were allowed to attach overnight before being treated with compounds. Drugs were reconstituted in vehicles consisting of sterile water or DMSO (concentration less than 0.5%). Cells were treated with various concentrations of the drug or its vehicle (control) alone or in combination with the cytokines TNF (10 ng/ml) and/or IFN (10 ng/ml) or their PBS vehicle (VEH). Cytotoxicity was evaluated as lactate dehydrogenase (LDH) activity released from the cells into culture medium using the Homogeneous Membrane Integrity Assay kit from Promega (Madison, Wis.).
Concentration-response curves were generated for 24 drugs, 14 of which are associated with human IDILI and 10 of which are not. […] This was necessary because four-parameter logistic modeling used in the statistical analysis requires well defined, sigmoidal concentration-response curves. Cells were exposed to drug/cytokine combinations for 24 hours. For analysis of drug concentration-response data, concentrations of each drug were expressed as a fraction of its Cmax.
Defining covariates: four-parameter logistic model. In the first phase, variables (potential covariates) for use in the classification analysis were defined from the analysis of drug concentration-response data. Initially, a one-way analysis of variance (ANOVA) was used as an omnibus test to determine if a particular treatment (e.g. drug alone or in combination with TNF and/or IFN) caused a significant change in LDH release relative to baseline (i.e., LDH release in the absence of drug, hereafter designated “min”). The criterion for significance for the ANOVA was set at α=0.01. A 1% level of significance was used to rule out more vigorously marginal relationships between concentration and response.
where LDH(x) is the percentage of LDH released at a given concentration x; x=[drug]/Cmax; min=the % LDH release at 0 drug concentration (i.e., baseline); and max=the maximal LDH response (i.e., maximum % LDH release).
where D10 is a categorical variable related to reaching a threshold LDH response above which a drug is classified as positively associated with IDILI. D10 is defined as 0 if Delta<10% LDH release and as 1 if Delta≥10% LDH release.
The base covariate R10 represents the [drug]/Cmax value associated with an increase in 10 LDH percentage points above min for a particular treatment condition and was determined by the equation:
R10 was considered to be 0 when the Delta<10% LDH (i.e. when D10=0).
EC50 quotient, EC10 quotient and R10 quotient represent the ratio between the EC50, EC10 or R10 of the drug/cytokine concentration-response curve and the respective value for the drug/VEH concentration-response curve. In some instances, the value derived from this calculation is indeterminate (i.e. when the denominator=0). In order to incorporate the quotient values into the classification models described below, the categorical variable “Q” was used to eliminate the possibility of the quotient being indeterminate. Q is defined as 0 if Delta VEH and/or Delta cytokine is <10% LDH and 1 if both Delta VEH and Delta cytokine are ≥10% LDH. […] The same condition was applied for calculation of EC10 quotient and R10 quotient.
Deltadiff represents the difference between the Delta of the drug/cytokine concentration-response curve and the Delta of the drug/VEH curve. In other words, Deltadiff=(Delta cytokine)−(Delta VEH). FIG. 1 graphically illustrates several of the covariates defined above. […] In addition to the covariates derived from the concentration-response curves, the maximal therapeutic plasma drug concentration (Cmax) in human patients was used in some models (Table 1).
In general terms: Release of lactate dehydrogenase indicates damage to the cell membrane.

The conditions of data set [1]: cited from earlier work; for True classification: IDILI in human patients; for IDILI liability: criteria of Xu et al. (2008); for pattern of liver injury in humans: human patients.
For data set [2] the following is noted: maximal plasma concentration after pharmacologic dosing in human patients; cited from earlier work.
Data set [3] is described as follows: Logistic regression classification model: probability that a drug is associated with IDILI. The arrangement: species or system human. As to conditions: for Estimated probability: probability that drug is associated with IDILI, covariates Deltadiff, EC50 VEH, EC50 TNF, Delta VEH, Cmax, optimal cutoff 0.46; for classification by the best-performing model: optimal cutoff. An excerpt: Classification modeling using defined covariates. In the second phase of analysis, classification models were developed using logistic regression with covariates as independent variables in the analysis and known IDILI classification as the dependent variable. A model selection process was used to determine if a covariate or set of covariates is associated with IDILI liability. Covariates were first evaluated individually to determine how well a particular covariate classified drugs according to IDILI liability, and then covariates were evaluated in combination. Combinations of covariates were selected to maximize the ability of the model to distinguish between drugs associated or not with IDILI. Specifically, covariates that describe changes in efficacy (Delta, Deltadiff, etc.) were paired with covariates that describe changes in potency (EC50, EC10, R10, etc.) to find covariate combinations that led to models that most accurately discriminated between drugs that are and are not associated with IDILI. […] The logistic regression models follow the equation: […]
where ŷi is the calculated (predicted) probability that drug i with a vector of covariates xi is associated with IDILI. The β coefficients (β0, the regression intercept; and βi, the regression slopes for model covariates, xi) were derived from the logistic regression models using 1) combinations of the covariates (xi) generated by concentration-response modeling for each of the 24 drugs evaluated in this study, and 2) the true IDILI classification for the dependent variable yi (i.e., 1 for IDILI+drugs and 0 for IDILI-drugs). […] This occurs when a covariate almost perfectly separates observations into the appropriate categories. […] When separation or quasi-complete separation occurs, use of the standard method (i.e., maximum likelihood estimation) provides biased, unreliable estimates of βi.
Receiver operating characteristic (ROC) analysis. In the third phase of the statistical approach, the classification models, generated as logistic regression models using single covariates or combinations of covariates, were evaluated by ROC analysis to determine which model and corresponding sets of covariates led to the most accurate classification of drugs according to their potential to cause IDILI. An ROC curve was created for each model by graphing the true positive rate (sensitivity; i.e., proportion of drugs correctly classified as associated with IDILI) against the false positive rate (1-specificity; i.e., proportion of drugs incorrectly classified as associated with IDILI) at various probability cutoff thresholds (k). […] An area under the curve (AUC) and confidence interval was computed for each ROC curve (where each logistic regression model has one ROC curve). […] Corresponding to each ROC curve is an optimal threshold value (k*), the threshold yielding the highest point of accuracy on the curve (i.e., the point nearest the point […] on the curve). Thus, each ROC curve has a corresponding AUC and an optimal cutoff (k*) that corresponds to the highest point of accuracy on that ROC curve.

The mark [4] stands for this setting: categorical, Delta threshold 10 LDH percentage points.
Where [5] appears, read: maximal LDH response, 24 h, read-out: max.
Setting [6] is: value corresponding to 10% of Delta, NA = no significant increase.
Setting [7] is: categorical, Delta threshold 10 LDH percentage points, read-out: D10.

Entries after “also recorded” stand apart in the source; their conditions may differ. Read-outs that look alike come from different tables or passages of the source.

With `CN(C)CCCN1c2ccccc2Sc2ccc(Cl)cc21` [Chlorpromazine], in the data set with HepG2 cells, the R10 is 36.0 [drug]/Cmax, the “R10 IFN” value was 34.8 [drug]/Cmax, the “R10 TNF” value is 31.5 [drug]/Cmax and the “R10 TNF/IFN” value was 25.3 [drug]/Cmax. Also, the Deltadiff in the data set with HepG2 cells was −15.3. Also, in the data set with HepG2 cells (HepG2, 24 h), the “cytotoxic interaction of drug with TNF” value is given as “TNF significantly enhanced the cytotoxicity” and the “cytotoxicity of drug on its own (LDH release)” value (“cytotoxicity of drug on its own” below) is “statistically significant increase in LDH release”. Also, the “effect of IFN coexposure on the drug/TNF cytotoxic interaction” value in the data set on HepG2 cells (HepG2, 24 h, TNF and IFN 10 ng/ml each) is listed as “coexposure to IFN enhanced the cytotoxic interaction”. In addition, the D10 (LDH rise of at least 10 points, yes/no) in the data set with HepG2 cells (setting [4]) was above 10%. In addition, the Emax with HepG2 cells (setting [5]) came out at 111%. For the same compound, in the data set on HepG2 cells (NA = no significant increase), the EC10 was 35.8 [drug]/Cmax. The “EC10 IFN” value in the data set with HepG2 cells (value corresponding to 10% of Delta, with IFN 10 ng/ml, NA = no significant increase) is 34.1 [drug]/Cmax. Besides, in the data set on HepG2 cells (setting [6]), the “EC10 TNF” value was 30.5 [drug]/Cmax and the “EC10 TNF/IFN” value was 24.1 [drug]/Cmax. Further, in data set [1], the True classification entry is “IDILI+” and the IDILI liability entry was “IDILI+”. For the same compound, the Cmax (commonly the highest concentration seen after dosing) in data set [2] was 0.84 µM. The Estimated probability in data set [3] is listed as 0.961.

For `O=C(O)[C@H]1/C(=C/CO)O[C@@H]2CC(=O)N21` [Clavulanate], in the data set with HepG2 cells, the R10 was 0 [drug]/Cmax, the “R10 IFN” value is 0 [drug]/Cmax, the “R10 TNF” value is 0 [drug]/Cmax and the “R10 TNF/IFN” value was 0 [drug]/Cmax. For the same compound, in the data set with HepG2 cells, the Deltadiff was 3.1. In the data set on HepG2 cells (HepG2, 24 h), the “cytotoxic interaction of drug with TNF” value is listed as “interacted only weakly with TNF” and the “cytotoxicity of drug on its own” value is “caused no cytotoxicity on their own”. In addition, in the data set on HepG2 cells (HepG2, 24 h, listed as clavulanate), the “cytotoxic interaction of drug with TNF” value is on record as “synergized with TNF to cause cytotoxicity; also recorded: small but statistically significant”. For the same compound, the Emax with HepG2 cells (setting [7]) was below 10%. Also, the Emax in the data set with HepG2 cells (setting [5]) turned out to be 17.4%. Besides, the TNF change with HepG2 cells (categorical) was determined as 0. In data set [1], the True classification result is listed as “IDILI+”, the IDILI liability result is listed as “IDILI+” and the “pattern of liver injury in humans” value was “cholestatic pattern of injury”. Also, the maximum concentration (Cmax) in data set [2] was 12 µM. Also, in data set [3], the “classification by the best-performing model” value was “correctly as IDILI1” and the Estimated probability is 0.9509.

Regarding `COc1cccc2c1C(=O)c1c(O)c3c(c(O)c1C2=O)C[C@@](O)(C(=O)CO)C[C@@H]3O[C@H]1C[C@H](N)[C@H](O)[C@H](C)O1` [Doxorubicin], in the data set with HepG2 cells, the R10 was 12.4 [drug]/Cmax, the “R10 IFN” value was 9.7 [drug]/Cmax, the “R10 TNF” value is 2.0 [drug]/Cmax and the “R10 TNF/IFN” value is 0.7 [drug]/Cmax. Further, the Deltadiff with HepG2 cells is recorded as −15.2. Also, in the data set with HepG2 cells (HepG2, 24 h), the “cytotoxic interaction of drug with TNF” value is “TNF significantly enhanced the cytotoxicity” and the “cytotoxicity of drug on its own” value is “statistically significant increase in LDH release”. The D10 (LDH rise of at least 10 points, yes/no) in the data set on HepG2 cells (setting [4]) was above 10%. Besides, in the data set with HepG2 cells (setting [5]), the Emax came to 113%. Further, in the data set with HepG2 cells (categorical), the TNF change stood at 0. In the data set with HepG2 cells (NA = no significant increase), the EC10 was 12.0 [drug]/Cmax. Further, in the data set with HepG2 cells (setting [6]), the “EC10 TNF” value is 1.7 [drug]/Cmax and the “EC10 TNF/IFN” value is 0.6 [drug]/Cmax. Besides, in data set [1], the True classification entry is on record as “IDILI+” and the IDILI liability result was “IDILI+”. Further, the Cmax in data set [2] was 1 µM. In addition, the Estimated probability in data set [3] is given as 0.8839.

In the case of `Cc1onc(-c2c(F)cccc2Cl)c1C(=O)N[C@@H]1C(=O)N2[C@@H]1SC(C)(C)[C@@H]2C(=O)O` [Flucloxacillin], in the data set on HepG2 cells, the R10 was 0 [drug]/Cmax, the “R10 IFN” value is 0 [drug]/Cmax, the “R10 TNF” value is 0 [drug]/Cmax and the “R10 TNF/IFN” value was 0 [drug]/Cmax. For the same compound, the Deltadiff in the data set on HepG2 cells amounted to 0. Also, in the data set on HepG2 cells (HepG2, 24 h), the “cytotoxic interaction of drug with TNF” value is given as “no statistically significant increase in LDH” and the “cytotoxicity of drug on its own” value is on record as “no statistically significant increase in LDH”. Besides, in the data set on HepG2 cells (HepG2, 24 h, TNF and/or IFN), the “synergy with cytokines to kill HepG2 cells” value was “did not synergize with cytokines to kill HepG2 cells”. Moreover, in the data set with HepG2 cells (setting [7]), the Emax was below 10%. Further, the Emax in the data set on HepG2 cells (setting [5]) was found to be 17.9%. Besides, in the data set with HepG2 cells (categorical), the TNF change is 0. Moreover, in data set [1], the True classification result is “IDILI+”, the IDILI liability result was “IDILI+” and the “pattern of liver injury in humans” value was “cholestatic rather than hepatocellular”. In addition, in data set [2], the Cmax is 72.6 µM. Moreover, the “calculated probability for association with IDILI” value in data set [3] (best-performing classification model) is listed as 0.154. Moreover, in data set [3], the “classification by the best-performing model” value was “incorrectly classified as not associated with IDILI” and the Estimated probability is given as 0.1545.
